Experimental data reported in the supplement of paper PMC11962398.

Columns and labels:
BI-2493 [1] = compound: T1, C[C@H]1CNCCN1c1nccc(-c2noc3c2CCC[C@@]32CCCc3sc(N)c(C#N)c32)n1 [BI-2493]; details: 5 days
Method: (§1)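 PRISM pooled barcoded cancer cell line viability screen (Broad Institute) with BI-2493 at 8 doses in threefold dilutions from 0.00457 to 10 µmol/L, 5-day treatment; curves fitted per cell line. IC50 is undefined (placeholder) for resistant lines. AUC is capped at 1, and sensitivity is reported as 1 − AUC.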

BI-2493 [2] = compound: T1, BI-2493; experiment: 1 - AUC of viability dose-response curve (sensitivity) (fraction); higher = more sensitive; details: 5 days
Method: as §1

PANC0813_PANCREAS
IC50 of cell viability (BI-2493 [1]): 7.44 µM
1 - AUC of viability dose-response curve (BI-2493 [2]): 0.27

PANC1005_PANCREAS
IC50 of cell viability (BI-2493 [1]): 3.98 µM
1 - AUC of viability dose-response curve (BI-2493 [2]): 0.121

PATU8902_PANCREAS
IC50 of cell viability (BI-2493 [1]): 6.58 µM
1 - AUC of viability dose-response curve (BI-2493 [2]): 0.0766

PATU8988S_PANCREAS
IC50 of cell viability (BI-2493 [1]): 1.14 µM
1 - AUC of viability dose-response curve (BI-2493 [2]): 0.197

PATU8988T_PANCREAS
IC50 of cell viability (BI-2493 [1]): 4.5 µM
1 - AUC of viability dose-response curve (BI-2493 [2]): 0.0812

PC3_PROSTATE
IC50 of cell viability (BI-2493 [1]): > 10 µM
1 - AUC of viability dose-response curve (BI-2493 [2]): 0.0397

PC14_LUNG
IC50 of cell viability (BI-2493 [1]): 3.98 µM
1 - AUC of viability dose-response curve (BI-2493 [2]): 0.181

PEA1_OVARY
IC50 of cell viability (BI-2493 [1]): 5.96 µM
1 - AUC of viability dose-response curve (BI-2493 [2]): 0.0757

PECAPJ15_UPPER_AERODIGESTIVE_TRACT
IC50 of cell viability (BI-2493 [1]): 5.35 µM
1 - AUC of viability dose-response curve (BI-2493 [2]): 0.125

PECAPJ41CLONED2_UPPER_AERODIGESTIVE_TRACT
IC50 of cell viability (BI-2493 [1]): 8.74 µM
1 - AUC of viability dose-response curve (BI-2493 [2]): 0.0352

PECAPJ49_UPPER_AERODIGESTIVE_TRACT
IC50 of cell viability (BI-2493 [1]): 5.93 µM
1 - AUC of viability dose-response curve (BI-2493 [2]): 0.0961

PEDS005TPFAD_KIDNEY
IC50 of cell viability (BI-2493 [1]): 4.24 µM
1 - AUC of viability dose-response curve (BI-2493 [2]): 0.199

PEDS005TSUSP_KIDNEY
IC50 of cell viability (BI-2493 [1]): 7.58 µM
1 - AUC of viability dose-response curve (BI-2493 [2]): 0.0633

PEDS015T_SOFT_TISSUE
IC50 of cell viability (BI-2493 [1]): > 10 µM
1 - AUC of viability dose-response curve (BI-2493 [2]): 0.0985

PF382_HAEMATOPOIETIC_AND_LYMPHOID_TISSUE
IC50 of cell viability (BI-2493 [1]): 5.53 µM
1 - AUC of viability dose-response curve (BI-2493 [2]): 0.102

PFSK1_CENTRAL_NERVOUS_SYSTEM
IC50 of cell viability (BI-2493 [1]): > 10 µM
1 - AUC of viability dose-response curve (BI-2493 [2]): 0.063

PK1_PANCREAS
IC50 of cell viability (BI-2493 [1]): 6.81 µM
1 - AUC of viability dose-response curve (BI-2493 [2]): 0.131

PK8_PANCREAS
IC50 of cell viability (BI-2493 [1]): 2.17 µM
1 - AUC of viability dose-response curve (BI-2493 [2]): 0.161

PK45H_PANCREAS
IC50 of cell viability (BI-2493 [1]): 4.3 µM
1 - AUC of viability dose-response curve (BI-2493 [2]): 0.168

PK59_PANCREAS
IC50 of cell viability (BI-2493 [1]): 1.05 µM
1 - AUC of viability dose-response curve (BI-2493 [2]): 0.336

PL21_HAEMATOPOIETIC_AND_LYMPHOID_TISSUE
IC50 of cell viability (BI-2493 [1]): 0.451 µM
1 - AUC of viability dose-response curve (BI-2493 [2]): 0.358

PLCPRF5_LIVER
IC50 of cell viability (BI-2493 [1]): 5.13 µM
1 - AUC of viability dose-response curve (BI-2493 [2]): 0.132

PMFKO14_LARGE_INTESTINE
IC50 of cell viability (BI-2493 [1]): 7.87 µM
1 - AUC of viability dose-response curve (BI-2493 [2]): 0.106

PSN1_PANCREAS
IC50 of cell viability (BI-2493 [1]): 9.23 µM
1 - AUC of viability dose-response curve (BI-2493 [2]): 0.137

QGP1_PANCREAS
IC50 of cell viability (BI-2493 [1]): 1.55 µM
1 - AUC of viability dose-response curve (BI-2493 [2]): 0.253

RBE_BILIARY_TRACT
IC50 of cell viability (BI-2493 [1]): 2.47 µM
1 - AUC of viability dose-response curve (BI-2493 [2]): 0.243

RCC10RGB_KIDNEY
IC50 of cell viability (BI-2493 [1]): 6.59 µM
1 - AUC of viability dose-response curve (BI-2493 [2]): 0.0818

RCHACV_HAEMATOPOIETIC_AND_LYMPHOID_TISSUE
IC50 of cell viability (BI-2493 [1]): 4.98 µM
1 - AUC of viability dose-response curve (BI-2493 [2]): 0.198

RCK8_HAEMATOPOIETIC_AND_LYMPHOID_TISSUE
IC50 of cell viability (BI-2493 [1]): 4.38 µM
1 - AUC of viability dose-response curve (BI-2493 [2]): 0.0825

RCM1_LARGE_INTESTINE
IC50 of cell viability (BI-2493 [1]): 1.73 µM
1 - AUC of viability dose-response curve (BI-2493 [2]): 0.271

RDES_BONE
IC50 of cell viability (BI-2493 [1]): 9.6 µM
1 - AUC of viability dose-response curve (BI-2493 [2]): 0.0344

RD_SOFT_TISSUE
IC50 of cell viability (BI-2493 [1]): 9.09 µM
1 - AUC of viability dose-response curve (BI-2493 [2]): 0.0771

RERFGC1B_STOMACH
IC50 of cell viability (BI-2493 [1]): 3.33 µM
1 - AUC of viability dose-response curve (BI-2493 [2]): 0.262

RERFLCAD1_LUNG
IC50 of cell viability (BI-2493 [1]): 4.27 µM
1 - AUC of viability dose-response curve (BI-2493 [2]): 0.18

RERFLCAD2_LUNG
IC50 of cell viability (BI-2493 [1]): 4.39 µM
1 - AUC of viability dose-response curve (BI-2493 [2]): 0.12

RERFLCKJ_LUNG
IC50 of cell viability (BI-2493 [1]): 8.19 µM
1 - AUC of viability dose-response curve (BI-2493 [2]): 0.0525

RERFLCMS_LUNG
IC50 of cell viability (BI-2493 [1]): 8.02 µM
1 - AUC of viability dose-response curve (BI-2493 [2]): 0.037

RH4_SOFT_TISSUE
IC50 of cell viability (BI-2493 [1]): 6.58 µM
1 - AUC of viability dose-response curve (BI-2493 [2]): 0.0866

RH28_SOFT_TISSUE
IC50 of cell viability (BI-2493 [1]): 5.97 µM
1 - AUC of viability dose-response curve (BI-2493 [2]): 0.0907

RH30_SOFT_TISSUE
IC50 of cell viability (BI-2493 [1]): 9.22 µM
1 - AUC of viability dose-response curve (BI-2493 [2]): 0.0138

RH36_SOFT_TISSUE
IC50 of cell viability (BI-2493 [1]): 6.76 µM
1 - AUC of viability dose-response curve (BI-2493 [2]): 0.119

RI1_HAEMATOPOIETIC_AND_LYMPHOID_TISSUE
IC50 of cell viability (BI-2493 [1]): 6.4 µM
1 - AUC of viability dose-response curve (BI-2493 [2]): 0.106

RKO_LARGE_INTESTINE
IC50 of cell viability (BI-2493 [1]): 7.43 µM
1 - AUC of viability dose-response curve (BI-2493 [2]): 0.0968

RL952_ENDOMETRIUM
IC50 of cell viability (BI-2493 [1]): 3.87 µM
1 - AUC of viability dose-response curve (BI-2493 [2]): 0.108

RL_HAEMATOPOIETIC_AND_LYMPHOID_TISSUE
IC50 of cell viability (BI-2493 [1]): 4.21 µM
1 - AUC of viability dose-response curve (BI-2493 [2]): 0.0967

RMGI_OVARY
IC50 of cell viability (BI-2493 [1]): 9.09 µM
1 - AUC of viability dose-response curve (BI-2493 [2]): 0.0414

RMSYM_SOFT_TISSUE
IC50 of cell viability (BI-2493 [1]): 6.04 µM
1 - AUC of viability dose-response curve (BI-2493 [2]): 0.119
